Measured values as given in ChEMBL document CHEMBL1201862, “PubChem BioAssay data set” (2004).
Active and inactive are the calls of the source.

Tests used:
[1] = HIV-1 Env-mediated cell fusion inhibitors, dose response, CCR5-tropic Env (AID 2279); assay type: functional
[2] = target: FAD-linked sulfhydryl oxidase ALR (Homo sapiens, UniProt P55789); assay: inhibitors of human ALR sulfhydryl oxidase, dose response, biochemical, H2O2 detection, luminescence, cherry-pick (AID 493248)
[3] = target: Heat shock protein HSP 90-alpha (Homo sapiens, UniProt P07900); assay: Luminescence-based dose response biochemical high throughput screening assay for inhibitors of the Heat Shock Protein 90 (HSP90). [Related pubchem assays: 1831 (Summary AID.), 1846 (Confirmation screen.), 1789 (Primary screen.)]
[4] = target: T1, Tyrosine-protein phosphatase non-receptor type 7 (Homo sapiens, UniProt P35236); assay: inhibitors of human HePTP phosphatase, […], biochemical, absorbance, leukemia target (AID 521); assay type: functional
T1 sequence (P35236 whole entry): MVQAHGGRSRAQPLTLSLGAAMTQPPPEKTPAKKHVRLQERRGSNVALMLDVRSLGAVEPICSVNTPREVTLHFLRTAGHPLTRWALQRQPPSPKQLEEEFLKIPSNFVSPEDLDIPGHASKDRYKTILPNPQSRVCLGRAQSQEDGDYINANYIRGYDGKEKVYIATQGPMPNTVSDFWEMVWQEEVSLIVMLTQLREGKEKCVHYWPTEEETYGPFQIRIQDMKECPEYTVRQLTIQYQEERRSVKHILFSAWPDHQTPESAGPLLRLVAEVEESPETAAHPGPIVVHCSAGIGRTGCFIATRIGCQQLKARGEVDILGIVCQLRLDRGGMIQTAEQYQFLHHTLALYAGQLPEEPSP

[5] = target: Luciferin 4-monooxygenase (Photinus pyralis, UniProt P08659); assay: firefly luciferase enzyme inhibitors, dose response, biochemical, luminescence (AID 1891)
[6] = Luminescent dose response cell-based high throughput screening assay for inhibitors of the Janus kinase 2 mutant JAK2V617F. [Related pubchem assays: 1446 (Primary screen.), 1521 (Confirmation assay.), 1486 (Counter screen.)]; assay type: functional
[7] = target: T2, Protein RecA (Mycobacterium tuberculosis, UniProt P9WHJ3); assay: Fluorescence Cell-Free Homogeneous Dose Retest to Identify Inhibitors of RecA-Intein Splicing Activity. [Related pubchem assays (depositor defined):AID2097, AID2223, AID489010, AID492950]; assay type: functional
T2 sequence (P9WHJ3 whole entry): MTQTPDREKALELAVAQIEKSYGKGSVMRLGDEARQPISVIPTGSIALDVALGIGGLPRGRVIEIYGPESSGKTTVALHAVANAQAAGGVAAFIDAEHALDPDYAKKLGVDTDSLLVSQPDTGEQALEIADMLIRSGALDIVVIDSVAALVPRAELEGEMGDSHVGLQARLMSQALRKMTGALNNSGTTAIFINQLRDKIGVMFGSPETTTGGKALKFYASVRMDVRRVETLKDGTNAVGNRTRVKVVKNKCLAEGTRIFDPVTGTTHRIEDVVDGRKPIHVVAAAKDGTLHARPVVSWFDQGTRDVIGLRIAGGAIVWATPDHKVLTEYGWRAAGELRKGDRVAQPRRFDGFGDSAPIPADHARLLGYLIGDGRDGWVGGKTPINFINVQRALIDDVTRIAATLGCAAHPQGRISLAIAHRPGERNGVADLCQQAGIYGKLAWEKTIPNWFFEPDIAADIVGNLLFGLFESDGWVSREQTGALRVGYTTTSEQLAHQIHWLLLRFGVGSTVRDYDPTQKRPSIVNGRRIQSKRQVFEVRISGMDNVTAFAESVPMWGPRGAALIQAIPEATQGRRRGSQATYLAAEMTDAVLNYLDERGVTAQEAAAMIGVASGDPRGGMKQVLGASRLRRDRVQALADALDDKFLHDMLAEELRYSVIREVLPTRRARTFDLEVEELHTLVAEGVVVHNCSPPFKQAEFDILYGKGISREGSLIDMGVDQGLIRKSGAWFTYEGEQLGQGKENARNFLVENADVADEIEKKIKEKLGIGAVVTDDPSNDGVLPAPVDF

[8] = system: INS1; assay: beta cell apoptosis inhibitors, cytokine rescue, dose response, luminescence, retest (AID 449756); assay type: functional, cell-based; conditions: Rattus norvegicus;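 further: cell death triggered by IL-1 beta plus TNF-alpha plus IFN-gamma mixture; protective hits raise ATP signal compared with cytokine alone wells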
[9] = target: T3, Rac GTPase-activating protein 1 (Homo sapiens, UniProt Q9H0H5); assay: MgcRacGAP GTPase-activating activity inhibitors, confirmation, biochemical, ADP Hunter fluorescence, primary and confirmatory (AID 624330); assay type: functional
T3 sequence (Q9H0H5 whole entry): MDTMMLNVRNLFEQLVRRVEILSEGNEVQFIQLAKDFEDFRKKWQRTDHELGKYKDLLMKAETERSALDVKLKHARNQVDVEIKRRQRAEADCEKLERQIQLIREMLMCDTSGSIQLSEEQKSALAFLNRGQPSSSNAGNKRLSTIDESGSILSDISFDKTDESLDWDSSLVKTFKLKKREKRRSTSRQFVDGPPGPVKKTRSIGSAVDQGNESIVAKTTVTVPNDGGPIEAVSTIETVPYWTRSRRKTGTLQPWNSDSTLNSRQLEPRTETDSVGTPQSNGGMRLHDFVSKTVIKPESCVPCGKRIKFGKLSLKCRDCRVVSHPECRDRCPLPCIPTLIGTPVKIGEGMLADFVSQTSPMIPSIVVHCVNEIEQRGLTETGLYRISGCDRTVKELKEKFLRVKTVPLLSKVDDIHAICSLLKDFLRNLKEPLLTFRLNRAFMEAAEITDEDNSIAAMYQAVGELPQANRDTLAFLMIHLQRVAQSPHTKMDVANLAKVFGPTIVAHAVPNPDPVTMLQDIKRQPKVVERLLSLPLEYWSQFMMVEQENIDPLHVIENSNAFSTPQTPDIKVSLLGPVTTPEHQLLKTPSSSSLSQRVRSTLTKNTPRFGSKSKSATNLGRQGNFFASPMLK

[10] = Luminescence Cell-Based Dose Response HTS to Identify Inhibitors of 5'UTR Stem-Loop Driven Prion Protein mRNA Translation in H4 Neuroglioblastoma Cells. [Related pubchem assays: 1827 (Project Summary), 1813 (Primary HTS)]; assay type: functional
[11] = target: T4, Replicative DNA helicase DnaB (Mycobacterium tuberculosis, UniProt P9WMR3); assay: DnaB intein splicing inhibitors, dose response, biochemical, cell-free fluorescence (AID 449749); assay type: functional
T4 sequence (P9WMR3 whole entry): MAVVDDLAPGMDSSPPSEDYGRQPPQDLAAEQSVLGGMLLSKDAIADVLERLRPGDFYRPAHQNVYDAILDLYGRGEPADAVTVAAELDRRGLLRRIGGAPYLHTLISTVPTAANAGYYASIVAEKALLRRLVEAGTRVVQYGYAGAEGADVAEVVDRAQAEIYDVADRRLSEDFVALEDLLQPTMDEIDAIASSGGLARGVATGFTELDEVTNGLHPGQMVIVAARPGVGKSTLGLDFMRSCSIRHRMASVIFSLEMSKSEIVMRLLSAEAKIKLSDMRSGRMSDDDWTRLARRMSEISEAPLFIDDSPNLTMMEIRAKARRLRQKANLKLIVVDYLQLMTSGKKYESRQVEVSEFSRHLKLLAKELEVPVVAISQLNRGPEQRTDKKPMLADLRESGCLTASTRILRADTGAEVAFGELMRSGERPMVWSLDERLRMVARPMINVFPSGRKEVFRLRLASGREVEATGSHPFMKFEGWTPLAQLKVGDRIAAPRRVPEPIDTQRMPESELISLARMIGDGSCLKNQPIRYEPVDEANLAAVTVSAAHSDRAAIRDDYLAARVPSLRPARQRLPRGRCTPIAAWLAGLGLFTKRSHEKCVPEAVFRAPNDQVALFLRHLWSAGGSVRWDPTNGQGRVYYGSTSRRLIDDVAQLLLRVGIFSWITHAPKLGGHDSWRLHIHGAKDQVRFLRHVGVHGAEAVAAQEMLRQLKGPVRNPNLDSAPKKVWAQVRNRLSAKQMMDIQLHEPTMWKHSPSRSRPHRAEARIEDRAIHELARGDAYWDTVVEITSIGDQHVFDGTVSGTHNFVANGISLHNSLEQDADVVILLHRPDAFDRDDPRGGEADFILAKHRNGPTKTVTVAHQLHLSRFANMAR

[12] = target: T5, Calpain-2 catalytic subunit (Sus scrofa, UniProt P43367); assay: pig calpain II inhibitor potency, dose response, biochemical, fluorogenic peptide substrate (AID 1420); assay type: functional
T5 sequence (P43367 whole entry): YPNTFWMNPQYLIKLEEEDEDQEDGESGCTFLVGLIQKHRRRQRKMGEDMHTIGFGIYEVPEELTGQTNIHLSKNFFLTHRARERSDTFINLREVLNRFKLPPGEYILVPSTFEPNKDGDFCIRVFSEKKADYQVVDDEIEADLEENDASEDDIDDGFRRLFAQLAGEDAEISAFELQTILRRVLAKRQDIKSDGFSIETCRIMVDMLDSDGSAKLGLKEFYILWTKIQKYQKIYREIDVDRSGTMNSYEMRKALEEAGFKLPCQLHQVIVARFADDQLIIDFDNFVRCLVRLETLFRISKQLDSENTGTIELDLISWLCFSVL

[13] = Luminescence Cell-Based Dose Confirmation HTS to Identify Inhibitors of Platelet Dense Granule Release. [Related pubchem assays: 1663 (Primary HTS), 1678 (Summary of Project)]; assay type: functional
[14] = HeLa cell cytotoxicity, dose response, cytotoxicity control for MgcRacGAP inhibitor project (AID 624300); assay type: functional
[15] = target: DNA damage-inducible transcript 3 protein (Mus musculus, UniProt P35639); assay type: functional, Cricetulus griseus
[16] = microbe, parasite or virus in culture; assay type: functional; conditions: Mycobacterium tuberculosis
[17] = M. tuberculosis growth inhibition, HTS (AID 449762); assay type: functional
[18] = target: T6, Caspase-6 (Homo sapiens, UniProt P55212); assay: human caspase-6 inhibitors, dose response, biochemical, VEID-R110 fluorescence, cherry-pick (AID 720632)
T6 sequence (P55212 whole entry): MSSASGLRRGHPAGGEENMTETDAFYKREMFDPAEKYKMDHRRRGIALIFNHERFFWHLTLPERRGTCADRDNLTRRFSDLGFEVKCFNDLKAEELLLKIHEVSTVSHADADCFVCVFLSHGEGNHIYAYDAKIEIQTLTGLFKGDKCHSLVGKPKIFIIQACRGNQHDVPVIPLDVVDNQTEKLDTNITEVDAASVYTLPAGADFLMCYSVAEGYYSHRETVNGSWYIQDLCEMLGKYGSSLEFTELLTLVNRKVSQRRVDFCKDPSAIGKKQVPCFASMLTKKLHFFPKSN

[19] = target: Large T antigen (Simian virus 40, UniProt P03070); assay type: functional, Betapolyomavirus macacae;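 further: Confirmatory-stage PubChem screen for compounds that inhibit SV40 T antigen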
[20] = target: Bifunctional protein GlmU (Mycobacterium tuberculosis, UniProt P9WMN3); assay: Inhibitors of Mycobacterial Glucosamine-1-phosphate acetyl transferase (GlmU). Secondary screen.; parameters: species or system Mycobacterium tuberculosis H37Rv
[21] = target: T7, Histone-lysine N-methyltransferase NSD2 (Homo sapiens, UniProt O96028); assay type: biochemical
T7 sequence (O96028 whole entry): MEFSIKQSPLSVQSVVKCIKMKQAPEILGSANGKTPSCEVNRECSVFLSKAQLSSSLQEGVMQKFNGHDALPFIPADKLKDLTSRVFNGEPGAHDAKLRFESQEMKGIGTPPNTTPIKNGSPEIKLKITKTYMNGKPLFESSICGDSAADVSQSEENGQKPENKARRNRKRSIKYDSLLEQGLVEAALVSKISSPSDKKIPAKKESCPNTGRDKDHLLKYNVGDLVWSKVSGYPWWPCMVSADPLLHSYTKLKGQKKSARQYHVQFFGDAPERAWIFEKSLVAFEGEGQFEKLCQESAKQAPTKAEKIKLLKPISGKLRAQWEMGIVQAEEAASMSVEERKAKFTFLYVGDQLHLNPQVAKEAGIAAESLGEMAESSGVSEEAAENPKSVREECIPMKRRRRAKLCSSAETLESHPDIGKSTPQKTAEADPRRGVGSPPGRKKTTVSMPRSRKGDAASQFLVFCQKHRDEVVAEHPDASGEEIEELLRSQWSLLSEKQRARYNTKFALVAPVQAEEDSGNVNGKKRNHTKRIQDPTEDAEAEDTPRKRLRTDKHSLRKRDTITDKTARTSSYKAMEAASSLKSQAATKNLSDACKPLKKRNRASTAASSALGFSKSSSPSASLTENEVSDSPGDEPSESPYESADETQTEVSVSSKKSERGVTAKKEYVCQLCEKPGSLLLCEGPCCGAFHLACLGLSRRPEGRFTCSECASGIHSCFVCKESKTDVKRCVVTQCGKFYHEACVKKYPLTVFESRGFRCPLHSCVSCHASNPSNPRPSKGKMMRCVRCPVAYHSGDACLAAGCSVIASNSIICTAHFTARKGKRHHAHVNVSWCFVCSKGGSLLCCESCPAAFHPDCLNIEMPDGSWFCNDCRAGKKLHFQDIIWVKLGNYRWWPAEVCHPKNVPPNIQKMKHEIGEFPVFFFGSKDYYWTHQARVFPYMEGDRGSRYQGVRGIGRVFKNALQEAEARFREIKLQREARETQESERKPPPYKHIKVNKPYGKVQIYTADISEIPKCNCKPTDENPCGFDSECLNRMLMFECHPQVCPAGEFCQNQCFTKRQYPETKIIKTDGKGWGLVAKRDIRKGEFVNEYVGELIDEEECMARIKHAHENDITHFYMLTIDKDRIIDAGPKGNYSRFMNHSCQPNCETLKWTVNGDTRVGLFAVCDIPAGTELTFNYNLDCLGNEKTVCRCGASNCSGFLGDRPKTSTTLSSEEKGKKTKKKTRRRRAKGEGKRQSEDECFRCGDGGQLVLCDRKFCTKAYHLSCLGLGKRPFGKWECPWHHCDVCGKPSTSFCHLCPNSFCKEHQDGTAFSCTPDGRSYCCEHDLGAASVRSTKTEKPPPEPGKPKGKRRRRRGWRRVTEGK

Large T antigen, sequence (P03070 whole entry): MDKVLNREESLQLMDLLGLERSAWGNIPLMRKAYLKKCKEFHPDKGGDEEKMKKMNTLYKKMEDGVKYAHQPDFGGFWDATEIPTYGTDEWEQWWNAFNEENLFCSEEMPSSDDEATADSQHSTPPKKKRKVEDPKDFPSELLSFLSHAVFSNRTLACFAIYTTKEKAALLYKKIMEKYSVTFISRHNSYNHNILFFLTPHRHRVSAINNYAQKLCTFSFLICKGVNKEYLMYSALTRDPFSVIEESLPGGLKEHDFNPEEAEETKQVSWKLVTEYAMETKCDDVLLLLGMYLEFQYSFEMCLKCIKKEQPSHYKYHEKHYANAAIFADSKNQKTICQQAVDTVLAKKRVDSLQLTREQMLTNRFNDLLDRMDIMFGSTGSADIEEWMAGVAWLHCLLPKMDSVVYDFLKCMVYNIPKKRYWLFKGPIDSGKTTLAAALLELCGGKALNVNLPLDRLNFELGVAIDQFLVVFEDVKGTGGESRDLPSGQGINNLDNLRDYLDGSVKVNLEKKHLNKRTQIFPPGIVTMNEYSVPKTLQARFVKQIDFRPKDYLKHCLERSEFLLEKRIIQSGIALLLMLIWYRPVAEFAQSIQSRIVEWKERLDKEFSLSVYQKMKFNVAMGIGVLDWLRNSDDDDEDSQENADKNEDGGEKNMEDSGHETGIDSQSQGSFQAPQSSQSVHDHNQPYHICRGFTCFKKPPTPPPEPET
Luciferin 4-monooxygenase, sequence (P08659 whole entry): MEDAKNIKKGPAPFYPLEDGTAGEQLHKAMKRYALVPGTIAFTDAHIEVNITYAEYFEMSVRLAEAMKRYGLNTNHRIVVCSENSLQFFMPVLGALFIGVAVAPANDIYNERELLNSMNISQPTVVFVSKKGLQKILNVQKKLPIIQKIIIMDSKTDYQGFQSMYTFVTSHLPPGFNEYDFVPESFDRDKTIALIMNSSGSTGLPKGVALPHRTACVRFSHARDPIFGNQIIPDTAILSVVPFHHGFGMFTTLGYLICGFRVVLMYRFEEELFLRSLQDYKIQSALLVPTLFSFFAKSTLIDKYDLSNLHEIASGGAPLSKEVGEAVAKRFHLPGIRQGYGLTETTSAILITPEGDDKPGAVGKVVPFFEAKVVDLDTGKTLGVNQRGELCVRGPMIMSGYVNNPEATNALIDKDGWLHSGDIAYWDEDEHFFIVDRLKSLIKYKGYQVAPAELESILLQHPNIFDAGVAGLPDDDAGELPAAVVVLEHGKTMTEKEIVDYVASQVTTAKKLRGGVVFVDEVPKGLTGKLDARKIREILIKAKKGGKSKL
Bifunctional protein GlmU, sequence (P9WMN3 whole entry): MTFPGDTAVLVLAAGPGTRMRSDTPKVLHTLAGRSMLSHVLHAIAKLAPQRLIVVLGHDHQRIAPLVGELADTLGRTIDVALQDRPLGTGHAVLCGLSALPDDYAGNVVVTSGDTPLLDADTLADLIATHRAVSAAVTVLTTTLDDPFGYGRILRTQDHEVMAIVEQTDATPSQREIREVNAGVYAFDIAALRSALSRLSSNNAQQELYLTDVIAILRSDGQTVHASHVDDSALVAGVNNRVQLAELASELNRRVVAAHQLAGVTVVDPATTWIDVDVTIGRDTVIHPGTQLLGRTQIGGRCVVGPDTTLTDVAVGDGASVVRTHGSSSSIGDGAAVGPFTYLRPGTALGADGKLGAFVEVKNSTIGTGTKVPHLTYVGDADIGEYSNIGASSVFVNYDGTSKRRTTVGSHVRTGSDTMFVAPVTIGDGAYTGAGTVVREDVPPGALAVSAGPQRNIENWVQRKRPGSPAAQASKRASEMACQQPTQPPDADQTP
DNA damage-inducible transcript 3 protein, sequence (P35639 whole entry): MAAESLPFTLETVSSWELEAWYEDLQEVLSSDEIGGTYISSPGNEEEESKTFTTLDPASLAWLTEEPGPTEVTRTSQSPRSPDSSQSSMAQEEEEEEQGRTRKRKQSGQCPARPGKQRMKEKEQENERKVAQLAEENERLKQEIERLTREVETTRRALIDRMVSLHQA
FAD-linked sulfhydryl oxidase ALR, sequence (P55789 whole entry): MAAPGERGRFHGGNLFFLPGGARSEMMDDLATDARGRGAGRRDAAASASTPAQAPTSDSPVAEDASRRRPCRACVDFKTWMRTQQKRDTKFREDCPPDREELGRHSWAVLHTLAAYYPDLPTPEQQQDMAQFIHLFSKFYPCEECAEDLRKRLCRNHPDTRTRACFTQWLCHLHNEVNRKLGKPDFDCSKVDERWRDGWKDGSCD

COc1cc(/C=N/Nc2ccc(Cl)c(C(=O)O)c2)ccc1OC(=O)c1ccccc1F
IC50 [1]: 4.45 µM (active) | AC50 [2]: 5.62 µM (active) | IC50 [3]: 1.06 µM (active)

CCOC(=O)COc1ccc(C2NC(C(=O)O)CS2)cc1 (stereo unspecified)
IC50 [4]: > 100 µM (not active)

O=C1/C(=N\c2ccc(O)cc2)C=C(O)c2ccccc21
EC50 [5]: 3.81 µM (active) | IC50 [6]: 2.02 µM (active) | EC50 [7]: 3.57 µM (active) | AC50 [8]: 6.8 µM (active) | IC50 [9]: 23.7 µM (active) | EC50 [10]: > 120 µM (not active) | AC50 [11]: 3.88 µM (active) | IC50 [12]: 5.1 µM (not active) | EC50 [13]: 4.34 µM (active) | CC50 [14]: 100 µM (active)

CCOc1ccc(/C=C/C2=Cc3c(sc(NC(=O)CSc4n[nH]c(N)n4)c3C#N)C(C)(C)C2)cc1
Absolute IC50 (CHOP) [15]: < 10 µM | CC50 [16]: 8.74 µM (active) | IC50 [17]: > 100 µM (active)

Cc1c(Br)c(=O)oc2c(Br)c(O)c(O)cc12
AC50 [18]: 19.5 µM (active) | IC50 [19]: 41.2 µM (active) | IC50 [20]: 55.4 µM (active) | AC50 [21]: 10.3 µM (active)
